Where two headings read alike, the source gives them in different places.
Tests used:
[1] = tested on: CFA induced PGE2 release in the ipsilateral inflamed hind paw of human KI mice (expressing human PTGES); assay: PGE2 measurements in CFA inflammation model using humanized KI mice; type: in vivo; conditions: for % inhibition of PGE2 in vivo vs vehicle: p.o., single dose, hind paw 48 h after CFA, 1 h after dose; for inhibition of CFA-induced PGE2 formation/release in the hind paw: single oral dosing, hu KI mice
Method: PGE2 Measurements in CFA Inflammation Model Using Humanized KI Mice
Female transgenic mice expressing the human PTGES enzyme (Taconic, Xu et al. 2008) received intraplantar injection of complete Freund's adjuvant (CFA) (30 μl, 1 mg/ml, Sigma) into the left hind paw under isoflurane anesthesia. […] At termination of the experiments (48 h after CFA, 1 h after dose), hind paw tissue is collected for analysis of PGE2 levels (ELISA, Cayman Chemical item no. 514531). […] Statistical analysis is performed with one-way analysis of variance, followed by Bonferroni's multiple comparison test vs. vehicle controls using the GraphPad PRISM software, *p<0.05, **p<0.01.

[2] = tested on: CFA-induced pain behavior in WT mice; assay: CFA inflammation model with pain read out (dynamic weight bearing); type: in vivo; conditions: single oral dosing on day 2 post-CFA, example 17: 30, 100 mg/kg, example 44: 30, 75 mg/kg
Method: Efficacy in CFA Inflammation Model with Pain Read Out
Wild type (WT) female c57bl/6 mice (Taconic) received intraplantar injection of complete Freund's adjuvant (CFA) (30 μl, 1 mg/ml, Sigma) into the left hind paw under isoflurane anesthesia. […] Spontaneous pain-related behavior in freely moving animals was assessed using the automated dynamic weight bearing device (DWB, Bioseb, France) according to published and validated protocols: Robinson I, Sargent B, Hatcher J P, Neurosci Lett. 2012 Aug. 30; 524(2):107-10. Use of dynamic weight bearing as a novel end-point for the assessment of Freund's Complete Adjuvant induced hypersensitivity in mice; Tétreault P, Dansereau M A, Doré-Savard L, Beaudet N, Sarret P. Physiol Behav. 2011 Sep. […] 2014 Jul. 30; 232:118-24. Use of dynamic weight bearing as a novel end-point for the assessment of abdominal pain in the LPS-induced peritonitis model in the rat. For behavioral testing, the animal was placed inside a Plexiglas chamber and allowed to move freely within the apparatus for a 5 min period, subsequently pain behavior is recorded for a test period of another 5 min.
Statistical analysis is performed with one-way analysis of variance, followed by Bonferroni's multiple comparison test vs. vehicle controls using the GraphPad PRISM software, *p<0.05, **p<0.01.

[3] = Unbound plasma concentration in human KI mice of the CFA model; type: in vivo; conditions: female, human PTGES knock-in (humanized KI, transgenic) mice, mouse, plasma, oral, read-out: Plasma concentration Cplasma-unbound
Method: At termination of the experiments (48 h after CFA, 1 h after dose), hind paw tissue is collected for analysis of PGE2 levels (ELISA, Cayman Chemical item no. 514531). […] Statistical analysis is performed with one-way analysis of variance, followed by Bonferroni's multiple comparison test vs. vehicle controls using the GraphPad PRISM software, *p<0.05, **p<0.01.

[4] = molecular target: human PTGES (Homo sapiens (Human), UniProt O14684); assay: Human PTGES biochemical enzyme inhibition assay (conversion of PGH2 to PGE2, TR-FRET)
Chain of human PTGES (O14684 whole entry): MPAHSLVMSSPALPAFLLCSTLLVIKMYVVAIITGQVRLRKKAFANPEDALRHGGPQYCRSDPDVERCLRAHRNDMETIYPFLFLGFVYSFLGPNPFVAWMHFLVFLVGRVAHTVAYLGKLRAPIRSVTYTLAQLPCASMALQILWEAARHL
In short: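 FLAG-tagged human PTGES from Hi-5 insect cells preincubated 15–20 min with compound in pH 7.2 phosphate buffer with 2.5 mM reduced glutathione; reaction started with 8 nM PGH2 final, stopped with SnCl2/KF.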

[5] = tested on: vaginal hyperalgesia and proliferation in endometriotic lesions; assay: Endometriosis disease model (dyspareunia model); type: in vivo, rat; conditions: 0.75 mg/kg, bid, p.o.
Description: Endometriosis Disease Model (Dyspareunia Model)
Female SD rats underwent endometriosis surgery in the estrus phase. 4 uterine fragments were sewn onto the mesenteric artery arc (closed to small intestine) and few other fragments (>2) were sewn onto the distal colonic wall. In parallel electrodes for later Electromyography (EMG) recordings were implanted in the abdominal wall to allow recording of the visceral motor response. After training viscero-motor response (VMR)/vaginal distension (VD) testing was performed 5 and 6 weeks post-surgery in the proestrus phase. For vaginal distension session, the uninflated balloon was lubricated and inserted into the mid-vaginal canal, located so, that it would not touch the cervix even when inflated. Inflating the balloon with different volumes of water using a computer-controlled pump distended the vaginal canal. In parallel, EMG recordings were collected to measure the VMR related to the distension. At 6 weeks, post-surgery endometriotic lesions and endometrium were excised to perform lesion analysis. RNA expression analysis was performed of lesions and endometrium. RNA of lesions and endometrium was isolated after homogenization of tissues in guanidinium thiocyanate using the RNeasy mini Kit (Qiagen) with DNase digestion. One microgram of RNA was reversely transcribed with random hexamers using the SuperScript III First-Strand Synthesis System (Invitrogen). Real-time Taqman PCR analysis was performed using the 7900HT Real Time PCR-System (Applied Biosystems). Prevalidated probes and primers for Mki67 (antigen identified by monoclonal antibody Ki-67; catalog No. Rn01451446_m1) and the endogenous control TBP* (see FIG. 1A; TATA box binding protein; catalog No. Rn01455646_m1) were purchased from Applied Biosystems. Relative mRNA levels were calculated using the comparative […]CT method using the RQ-Manager software (Applied Biosystems).
Example 17 (0.75 mg/kg, bid, p.o.) was administered twice daily starting end of week 2 post surgery until week 5 post surgery.

concentration at 1 h ([3]; 1 mg/kg) | concentration at 1 h ([3]; 3 mg/kg) | SMILES | % inhibition of PGE2 in vivo vs vehicle ([1]; 1 mg/kg) | % inhibition of PGE2 in vivo vs vehicle ([1]; 3 mg/kg) | % inhibition of PGE2 in vivo vs vehicle ([1]; 10 mg/kg) | inhibition of CFA-induced PGE2 formation/release in the hind paw [1] | pain behavior as assessed by DWB after CFA-induced inflammation [2] | concentration at 1 h ([3]; 10 mg/kg) | IC50 ([4]; Enzymatic conversion of PGH2 to PGE2, read-out: Human PTGES IC50) | IC50 ([4]; human PTGES, as listed in Table 2, read-out: hu IC50 biochem.) | vaginal hyperalgesia versus vehicle-treated animals ([5]; end of week 2 until week 5 post surgery, rats) | proliferation in lesions (gene expression of proliferation marker Ki67 vs. housekeeping control) ([5]; Taqman in week 6) | vaginal hyperalgesia effect in the treatment free period ([5]; treatment free period of week 6)
15 nM | 47 nM | Cc1c(CCC(=O)O)cccc1NC(=O)C(c1ccc(-c2cncc(Cl)c2)c(F)c1)C1CCCC1 (single isomer, unassigned; (-)) [Example 44, (−) 3-[3-({[4-(5-Chloropyridin-3-yl)-3-fluorophenyl](cyclopentyl)acetyl}amino)-2-methylphenyl]propanoic acid] | 95% | 65% | 100% | strong efficacy | significantly and dose-dependently reduced pain behavior | 173 nM | – | – | – | – | –
– | – | Cc1c(CCC(=O)O)cccc1NC(=O)[C@@H](c1ccc(-c2cncc(Cl)c2)cc1)C1CCCC1 [Example 17, (−) (R) 3-[3-({[4-(5-Chloropyridin-3-yl)phenyl](cyclopentyl)acetyl}amino)-2-methylphenyl]propanoic acid] | – | – | 88% | strong efficacy | significantly and dose-dependently reduced pain behavior | 380 nM | 35.2 nM | 35 nM | significantly decreased vaginal hyperalgesia | significantly reduced proliferation in lesions | effect was maintained

Reference: patent US10172814B2, “Substituted pyridyl-cycloalkyl-carboxylic acids, compositions containing them and medical uses thereof” (BAYER PHARMA AKTIENGESELLSCHAFT, priority 2014, dated 2019)
